In patent US20090093476A1, “PYRROLO[1,2-A]QUINOXALINE DERIVATIVES AS ADENOSINE A3 RECEPTOR MODULATORS AND USES THEREOF” (FAUST PHARMACEUTICALS, priority 2005, published 2009):
Counter-ions that a name gives are not always drawn. One block for each compound: values may come before it.

Columns and labels:
Human A2B receptor = biological target: T1, Human A2B receptor (Homo sapiens, UniProt P29275); assay: Human A2B receptor binding assay, [3H]MRS1754, HEK-293 cells; settings: for IC50: [3H]MRS1754 0.5 nM, HEK-293 cells, read-out: hA2B IC50
T1 construct: expressed in transfected cells; host or cells: HEK-293 cells
T1 sequence (P29275 1-332): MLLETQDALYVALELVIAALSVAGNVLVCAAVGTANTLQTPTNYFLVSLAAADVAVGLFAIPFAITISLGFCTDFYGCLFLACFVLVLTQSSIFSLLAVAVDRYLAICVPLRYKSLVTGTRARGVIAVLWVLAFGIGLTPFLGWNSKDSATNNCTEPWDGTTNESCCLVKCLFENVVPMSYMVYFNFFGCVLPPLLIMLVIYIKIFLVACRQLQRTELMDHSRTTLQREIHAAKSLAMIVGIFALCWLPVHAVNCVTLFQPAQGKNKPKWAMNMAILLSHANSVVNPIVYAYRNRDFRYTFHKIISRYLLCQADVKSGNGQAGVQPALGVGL
Experimental: Compounds of the invention were evaluated in binding assays following procedure described by Stehle et al. (Mol. Endocrinol. (1992), 6:384-393). Human A2B receptors were used in HEK-293 cells with [^3H]MRS1754 (0.5 nM) as radioligand, NECA (1 μM) for non-specific binding and 120 minutes of incubation at 22° C.

Human A1 receptor = biological target: T2, Human A1 receptor (Homo sapiens, UniProt P30542); assay: Human A1 receptor binding assay, [3H]DPCPX, CHO cells; settings: for IC50 / inhibition at 10 µM: [3H]DPCPX 1 nM; for IC50: CHO cells, read-out: hA1 IC50; for inhibition at 10 µM: read-out: hA1 inhibition at 10 μM
T2 construct: expressed in transfected cells; host or cells: CHO cells
T2 sequence (P30542 1-326): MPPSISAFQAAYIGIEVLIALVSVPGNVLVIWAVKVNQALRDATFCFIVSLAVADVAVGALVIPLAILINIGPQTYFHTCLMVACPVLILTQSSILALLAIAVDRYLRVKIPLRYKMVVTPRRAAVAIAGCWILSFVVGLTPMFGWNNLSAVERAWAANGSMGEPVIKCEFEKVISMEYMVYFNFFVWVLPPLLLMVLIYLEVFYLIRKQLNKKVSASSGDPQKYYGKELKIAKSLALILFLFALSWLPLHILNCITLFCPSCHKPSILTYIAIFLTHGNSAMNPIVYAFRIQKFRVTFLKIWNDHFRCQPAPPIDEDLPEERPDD
Experimental: Compounds of the invention were evaluated in binding assays following procedure described by Townsend-Nicholson and Schofield (J. Biol. Chem. (1994), 269:2373-2376). Human A1 receptors were used in CHO cells with [^3H]DPCPX (1 nM) as radioligand, DPCPX (1 μM) for non-specific binding and 60 minutes of incubation at 22° C.

Human A3 receptor [1] = biological target: T3, Human A3 receptor (Homo sapiens, UniProt P0DMS8); assay: Human A3 receptor binding assay, [125I]AB-MECA, HEK-293 cells; set-up: expressed in transfected cells; settings: [125I]AB-MECA 0.15 nM; for IC50: HEK-293 cells, read-out: hA3 IC50; for inhibition at 1 µM: read-out: hA3 inhibition at 1 μM (of specific binding)
T3 sequence (P0DMS8 1-318): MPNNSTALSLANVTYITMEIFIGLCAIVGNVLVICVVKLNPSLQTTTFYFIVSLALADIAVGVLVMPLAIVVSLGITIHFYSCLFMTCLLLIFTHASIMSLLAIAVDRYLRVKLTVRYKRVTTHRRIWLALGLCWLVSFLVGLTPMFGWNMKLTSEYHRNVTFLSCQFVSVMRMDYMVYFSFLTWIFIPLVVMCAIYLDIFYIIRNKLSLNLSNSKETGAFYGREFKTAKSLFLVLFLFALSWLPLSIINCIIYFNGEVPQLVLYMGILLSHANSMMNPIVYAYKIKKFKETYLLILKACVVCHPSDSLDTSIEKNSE
Experimental: Compounds of the invention were evaluated in binding assays following procedure described by Salvatore et al. (Proc. Natl. Acad. Sci. (1993), 90:10365-10369). Human A3 receptors were used in HEK-293 cells with [^125I]AB-MECA (0.15 nM) as radioligand, IB-MECA (1 μM) for non-specific binding and 90 minutes of incubation at 22° C.

Human A3 receptor [2] = biological target: T3, Human A3 receptor; assay: Functional assay on human A3 receptor: forskolin-stimulated cAMP in CHO cells; type: cell-based; set-up: expressed in transfected cells; host or cells: CHO cells; settings: for cAMP levels: forskolin 10 μM, example 1 10 μM, Cl-IB-MECA 0.1 μM, Basal 0, Forskolin 100
Experimental: CHO cells expressing the human A3 receptor were grown overnight as a monolayer in 24 well tissue culture plates (400 μl/well; 2×10^5 cells/well). cAMP generation was performed in Dulbecco's modified Eagle's medium (DMEM)/N-2-hydroxyethylpiperazin-N-2-ethansulfonic acid (HEPES) buffer (0.60 g HEPES/50 ml DMEM pH 7.4). Each well was washed twice with HEPES/DMEM buffer (250 μl), and the following added: rolipram (50 μM) and cilostamide (50 μM). This was incubated for 30 min at 37° C. followed by the introduction of the compound of example 1 (10 μM) and Cl-IB-MECA (0.1 μM) or DMEM/HEPES. After a further 10 min of incubation, forskolin was added (10 μM). After a subsequent 15 min, incubation was stopped by aspirating the assay medium and by adding 200 μl of ice-cold 0.1M HCl. The amount of cAMP was determined by competition with [3H]cAMP for protein kinase A (PKA). Briefly, the sample, approximately 1.8 nM [3H]cAMP, and 100 μl of PKA solution were incubated on ice for at least 2.5 h. The incubations were stopped by rapid dilution with 2 ml of icecold Tris HCl buffer (pH 7.4), and bound radioactive material was then recovered by filtration through Whatman GF/C filters. Filters were additionally rinsed with 2×2 ml of Tris HCl buffer, and then the radioactivity was counted in Packard Emulsifier Safe scintillation fluid (3.5 mL). All data reflect three independent experiments.

Human A2A receptor = biological target: T4, Human A2A receptor (Homo sapiens, UniProt P29274); assay: Human A2A receptor binding assay, [3H]CGS 21680, HEK-293 cells; settings: for IC50 / inhibition at 10 µM: [3H]CGS 21680 6 nM; for IC50: HEK-293 cells, read-out: hA2A IC50; for inhibition at 10 µM: read-out: hA2A inhibition at 10 μM
T4 construct: expressed in transfected cells; host or cells: HEK-293 cells
Experimental: Compounds of the invention were evaluated in binding assays following procedure described by Luthin et al. (Mol. Pharmacol. (1995), 47:307-313). Human A2A receptors were used in HEK-293 cells with [^3H]CGS 21680 (6 nM) as radioligand, NECA (10 μM) for non-specific binding and 90 minutes of incubation at 22° C.

T4 sequence (P29274 whole entry): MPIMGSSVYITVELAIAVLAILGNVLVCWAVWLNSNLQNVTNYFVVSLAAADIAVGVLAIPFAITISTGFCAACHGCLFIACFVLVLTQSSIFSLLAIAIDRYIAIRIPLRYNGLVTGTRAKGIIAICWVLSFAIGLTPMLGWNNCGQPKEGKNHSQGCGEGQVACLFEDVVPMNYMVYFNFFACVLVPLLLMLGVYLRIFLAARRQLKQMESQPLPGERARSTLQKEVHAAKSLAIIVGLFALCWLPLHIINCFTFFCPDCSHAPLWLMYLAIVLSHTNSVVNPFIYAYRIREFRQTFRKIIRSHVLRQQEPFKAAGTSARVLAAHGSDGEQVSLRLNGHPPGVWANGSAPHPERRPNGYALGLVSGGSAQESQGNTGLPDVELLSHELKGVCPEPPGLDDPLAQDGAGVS

melting point: 299 to 301 °C
Structure (SMILES): CCNc1nc2ccccc2n2cc(-c3ccccc3)cc12.Cl

IC50 (Human A2B receptor): > 1 µM
affinity on A2B (in words) (Human A2B receptor; up to 1 μM): no detectable affinity
IC50 (Human A1 receptor): > 10 µM
affinity on A1 (in words) (Human A1 receptor; up to 10 μM): no detectable affinity
IC50 (Human A3 receptor [1]): 0.0093 µM
melting point: 301 to 303 °C
mode of action at A3 receptor (prevents cAMP-decrease evoked by Cl-IB-MECA) (Human A3 receptor [2]; example 1 10 μM vs Cl-IB-MECA 0.1 μM): antagonist
cAMP levels (Human A3 receptor [2]; n = 1): 150.133
cAMP levels (Human A3 receptor [2]; n = 2): 130.150
cAMP levels (Human A3 receptor [2]; n = 3): 104.510
IC50 (Human A2A receptor): > 10 µM
affinity on A2A (in words) (Human A2A receptor; up to 10 μM): no detectable affinity
Structure (SMILES): O=c1[nH]c2ccccc2n2cc(-c3ccccc3)cc12 [Example 1, 2-Phenyl-5H-pyrrolo[1,2-a]quinoxalin-4-one]

inhibition at 1 µM (Human A3 receptor [1]): 82%
melting point: 327 to 332 °C
Structure (SMILES): COc1ccc(-c2cc3c(=O)[nH]c4ccccc4n3c2)cc1 [Example 2, 2-(4-Methoxy-phenyl)-5H-pyrrolo[1,2-a]quinoxalin-4-one]

melting point: 172 °C
Structure (SMILES): c1ccc(Nc2nc3ccccc3n3cc(-c4ccccc4)cc23)cc1 [Example 3, Phenyl-(2-phenyl-pyrrolo[1,2-a]quinoxalin-4-yl)-amine]

melting point: 109 to 111 °C
Structure (SMILES): CN(C)c1nc2ccccc2n2cc(-c3ccccc3)cc12 [Example 6, Dimethyl-(2-phenyl-pyrrolo[1,2-a]quinoxalin-4-yl)-amine]

melting point: 126 °C
Structure (SMILES): c1ccc(CCNc2nc3ccccc3n3cc(-c4ccccc4)cc23)cc1 [Example 7, Phenethyl-(2-phenyl-pyrrolo[1,2-a]quinoxalin-4-yl)-amine]

melting point: 132 °C
Structure (SMILES): CSc1nc2ccccc2n2cc(-c3ccccc3)cc12 [Example 9, 4-Methylsulfanyl-2-phenyl-pyrrolo[1,2-a]quinoxaline]

inhibition at 1 µM (Human A3 receptor [1]): 32%
Structure (SMILES): CN(C)c1ccc(-c2cc3c(=O)[nH]c4ccccc4n3c2)cc1 [Example 10, 2-(4-Dimethylamino-phenyl)-5H-pyrrolo[1,2-a]quinoxalin-4-one, trifluoroacetic acid salt]

IC50 (Human A2B receptor): > 10 µM
inhibition at 10 µM (Human A1 receptor): 53%
inhibition at 1 µM (Human A3 receptor [1]): 90%
IC50 (Human A2A receptor): > 10 µM
Structure (SMILES): O=c1[nH]c2ccc(N3CCOCC3)cc2n2cc(-c3ccccc3)cc12 [Example 11, 8-Morpholin-4-yl-2-phenyl-5H-pyrrolo[1,2-a]quinoxalin-4-one, trifluoroacetic acid salt]

melting point: 314 to 315 °C
Structure (SMILES): Cc1ccc2[nH]c(=O)c3cc(-c4ccccc4)cn3c2c1 [Example 12, 8-Methyl-2-phenyl-5H-pyrrolo[1,2-a]quinoxalin-4-one]

melting point: 346 °C
Structure (SMILES): O=c1[nH]c2ccc(Cl)cc2n2cc(-c3ccccc3)cc12 [Example 13, 8-Chloro-2-phenyl-5H-pyrrolo[1,2-a]quinoxalin-4-one]

IC50 (Human A2B receptor): > 10 µM
IC50 (Human A1 receptor): 8.4 µM
IC50 (Human A3 receptor [1]): 0.011 µM
IC50 (Human A2A receptor): > 10 µM
Structure (SMILES): CN1CCN(c2ccc3[nH]c(=O)c4cc(-c5ccccc5)cn4c3c2)CC1 [Example 14, 8-(4-Methyl-piperazin-1-yl)-2-phenyl-5H-pyrrolo[1,2-a]quinoxalin-4-one]

IC50 (Human A2B receptor): > 10 µM
inhibition at 10 µM (Human A1 receptor): 53%
IC50 (Human A3 receptor [1]): 0.0031 µM
inhibition at 10 µM (Human A2A receptor): 69%
Structure (SMILES): O=c1[nH]c2ccc(NCCCN3CCOCC3)cc2n2cc(-c3ccccc3)cc12 [Example 15, 8-(3-Morpholin-4-yl-propylamino)-2-phenyl-5H-pyrrolo[1,2-a]quinoxalin-4-one, trifluoro-acetic acid salt]

IC50 (Human A2B receptor): > 10 µM
inhibition at 10 µM (Human A1 receptor): 54%
IC50 (Human A3 receptor [1]): 0.0035 µM
melting point: 190 to 200 °C
inhibition at 10 µM (Human A2A receptor): 57%
Structure (SMILES): O=C(O)C(F)(F)F.O=c1[nH]c2ccc(OCCN3CCOCC3)cc2n2cc(-c3ccccc3)cc12 [Example 17, 8-(2-Morpholin-4-yl-ethoxy)-2-phenyl-5H-pyrrolo[1,2-a]quinoxalin-4-one, trifluoroacetic acid salt]
